Experimental data as given in patent publication US20120202754A1 (priority 2009, published 2012).

The substances below were run against BoNT A light chain (BoNT A Lc) (Clostridium botulinum, UniProt P0DPI0).
Assay type: biochemical

Chain of BoNT A light chain (BoNT A Lc) (P0DPI0 2-448 limits assumed): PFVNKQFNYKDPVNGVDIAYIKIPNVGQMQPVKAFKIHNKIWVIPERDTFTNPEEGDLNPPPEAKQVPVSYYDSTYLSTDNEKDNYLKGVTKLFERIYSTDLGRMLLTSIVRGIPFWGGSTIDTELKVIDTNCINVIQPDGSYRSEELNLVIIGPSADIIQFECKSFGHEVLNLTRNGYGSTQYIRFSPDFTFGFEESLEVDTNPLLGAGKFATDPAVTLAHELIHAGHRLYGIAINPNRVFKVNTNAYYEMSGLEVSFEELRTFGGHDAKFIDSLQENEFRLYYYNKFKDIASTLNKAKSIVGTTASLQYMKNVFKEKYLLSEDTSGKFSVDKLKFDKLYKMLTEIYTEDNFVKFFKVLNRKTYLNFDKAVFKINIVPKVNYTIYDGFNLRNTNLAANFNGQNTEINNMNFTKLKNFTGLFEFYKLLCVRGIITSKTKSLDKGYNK

Substance	effect of substitution or truncation on hydrolysis rate (in words)
N R V R I D A A N Q R A T R M [Peptide P5]	enhanced cleavage velocity
S N K V R I D Q A N Q R A T K M L [Peptide P3]	further enhanced the rate
S N R V R I D Q A N Q R A T R M L [Peptide P4]	had no effect
V R I D A A N Q R A T R M [Peptide P7]	decreased the hydrolysis rate significantly
